Measurements as given in patent US11331364B2, “Use for JNK inhibitor molecules for treatment of various diseases” (Xigen Inflammation Ltd., priority 2014, dated 2022).
Square brackets hold non-standard residues; d marks the D form. Peptide text beside a SMILES is read from it.

Experiments:
[1] = test system: human whole blood; experiment: PMA+ionomycin-induced cytokine release in human whole blood; format: cell-based; details: 1, 3, 10 μM; 4 hours
Protocol: FIG. 19 JNK inhibition and IL-2 release in human whole blood. The JNK inhibitor with SEQ ID NO: 172 was added at three different concentrations, namely 1, 3 and 10 μM 1 h before whole blood stimulation with PMA+ionomycin (25/700 ng/mL, 50/800 ng/mL and 50/1000 ng/mL) for 4 hours.
FIG. 20 JNK inhibition and IFN-γ release in human whole blood. The JNK inhibitor with SEQ ID NO: 172 was added at three different concentrations, namely 1, 3 and 10 μM 1 h before whole blood stimulation with PMA+ionomycin (25/700 ng/mL, 50/800 ng/mL and 50/1000 ng/mL) for 4 hours.
FIG. 21 JNK inhibition and TNF-α release in human whole blood. The JNK inhibitor with SEQ ID NO: 172 was added at three different concentrations, namely 1, 3 and 10 μM 1 h before whole blood stimulation with PMA+ionomycin (25/700 ng/mL, 50/800 ng/ml and 50/1000 ng/mL) for 4 hours.
Whole blood is collected from anesthetized rat or human healthy volunteers using a venipuncture connected to a pre-labeled vacuum tube containing sodium citrate. Tubes are gently mixed by inversion 7-8 times; and are then kept at RT until stimulation. JNK inhibitor of SEQ ID NO: 172 is prepared 6 times concentrated in PBS, and 30 μl/well of mix is added into 96-well plate. Whole blood is diluted by 1:2 in PBS and 120 μl of diluted blood is added in each well where either PBS alone or JNK inhibitor of SEQ ID NO: 172 has been previously added. Whole blood is incubated at 37° C.; 85 rpm (Stuart Orbital incubator SI500) for 60 min. Activators (LPS) are the prepared, 30 μl/well of LPS, 6 times concentrated. After 60 min incubation, LPS is added to the blood, blood is mixed by pipetting up and down, and then kept for 4 h under agitation (85 rpm), at 37° C. After the 4 h incubation, the plates are centrifuged at about 770 g, 4° C. for 15 min in a pre-cooled centrifuge. […] Cytokine (IL-6, IL-2, IFNγ and TNFα) were then measured using standard Elisa kits (e.g. from R&D Systems: DuoSet Elisas; or from BD Biosciences: BD Opteia Set Elisa). Results are expressed as pg/ml of supernatant of the measured cytokine. […]

[2] = test system: healthy male volunteers; experiment: Phase I safety and tolerability of single and repeated instillations; format: in vivo, human
Protocol: XG-104 was prepared as solution for instillations (in NaCl 0.9%). NaCl 0.9% served as placebo. A total of 49 subjects were included in this study, 28 in the “Single dose part” of this study and 21 in the “Multiple dose part” of this study. In the single dose part, the 28 subjects included were randomised between one of the 5 groups: 5 subjects in each of the 4 XG-104 groups (0.1 mg, 0.2 mg, 0.4 mg, 0.8 mg) (0.2, 0.4, 0.8 and 1.6%, respectively) and 8 subjects in the placebo group. In the multiple dose part, the 21 subjects included were randomised between one of the 4 groups: 5 subjects in each of the 3 XG-104 groups (0.1 mg, 0.2 mg, 0.4 mg) and 6 subjects in the placebo group. All subjects completed the study.
In the “Single dose part” of this study, single topical doses of 0.1, 0.2, 0.4 and 0.8 mg (0.2, 0.4, 0.8 and 1.6%, respectively) of XG-104 were tested. A single administration of XG-104 or placebo was performed on day 1 (D1) (one drop in the right eye). In the single dose part, subjects were hospitalized for approximately 36 h, namely from day −1 (D−1) evening to D2 morning. On day 3 an ambulatory visit was performed and the study ended with a visit at D4.
In the “Multiple dose part” of this study, three dose levels were tested. Doses were chosen according to the results of the single dose part as follows: first group: 0.1 mg (0.2%), second group: 0.2 mg (0.4%), and third group: 0.4 mg (0.8%). XG-104 or placebo was administered tid (“ter in die”—three times daily), each time 1 drop in the right eye, from D1 to D21. The administration took place at around 8 a.m., 12 a.m. and 8 p.m. In the multiple dose part, subjects were hospitalized from D−1 evening to D22 morning, whereby the end of the study was a visit at D36 (±2). For more flexibility, subjects had the possibility to perform some visits in ambulatory. In that case visits were the following: hospitalization for approximately 36 h, D−1 evening to D2 morning, ambulatory visits from D2 to D7, hospitalization for approximately 36 h, D7 evening to D9 morning, ambulatory visits from D9 to D14, hospitalization for approximately 36 h, D14 evening to D16 morning, ambulatory visits from D16 to D20, and hospitalization for approximately 36 h, D20 evening to D22 morning. The end of the study was a visit at D36 (±2), accordingly.
The safety parameters evaluated included: physical examination; vital signs (BP, PR); 12-lead ECG (electrocardiogram); fundus of the eye, intraocular pressure, slit lamp examination, best-corrected visual acuity, redness; Schirmer's tear test, TBUT (tear film break-up time); clinical laboratory tests (haematology, haemostasis, clinical chemistry and urinalysis); adverse events; and assessment of tolerability.

[3] = multiple dose 0.1 mg (0.2%) tid
[4] = multiple dose 0.2 mg (0.4%) tid
[5] = multiple dose 0.4 mg (0.8%) tid

## CC(C)C[C@H](NC(=O)[C@H](CC(N)=O)NC(=O)[C@H](CC(C)C)NC(=O)[C@@H](NC(=O)[C@@H](C)NC(=O)[C@@H]1CCCN1C(=O)[C@H](CCCNC(=N)N)NC(=O)[C@@H](CCCCN)NC(=O)[C@@H]1CCCN1C(=O)[C@H](CCCNC(=N)N)NC(=O)[C@@H](CCCNC(=N)N)NC(=O)[C@H](CCCNC(=N)N)NC(=O)[C@H](CCCNC(=N)N)NC(=O)[C@H](CCC(N)=O)NC(=O)[C@@H](CCCNC(=N)N)NC(=O)[C@H](CCCNC(=N)N)NC(=O)[C@H](CCCCN)NC(=O)[C@H](CCCCN)NC(=O)[C@H](N)CCCNC(=N)N)[C@@H](C)O)C(=O)N[C@H](Cc1ccccc1)C(N)=O [SEQ ID NO: 172, rKKRrQRRrRPkRPaTLNLf] (H-[dR]KKR[dR]QRR[dR]RP[dK]RP[dA]TLNL[dF]-NH2; N-terminus assumed)
[1]
  PMA+ionomycin-induced IFN-γ release: did reduce the PMA+ionomycin-induced IFN-γ release in a dose-dependent manner
  PMA+ionomycin-induced IL-2 release: did reduce the PMA+ionomycin-induced IL-2 release in a dose-dependent manner
  PMA+ionomycin-induced TNF-α release: did reduce the PMA+ionomycin-induced TNF-α release in a dose-dependent manner
[2]; [3]
  conjunctival hyperaemia, left eye, unlikely related (number): 2
  conjunctival hyperaemia, right eye, unlikely related (number): 6
  conjunctivas, right eye, probably related (number): 2
  punctate keratitis, left eye, unlikely related (number): 2
  punctate keratitis, left eye, unrelated (number): 1
  punctate keratitis, right eye, unlikely related (number): 6
[2]; [4]
  conjunctival hyperaemia, left eye, unlikely related (number): 3
  conjunctival hyperaemia, right eye, unlikely related (number): 5
  eyelid irritation, right eye, probably related (number): 1
  punctate keratitis, left eye, unlikely related (number): 1
  punctate keratitis, left eye, unrelated (number): 4
  punctate keratitis, right eye, unlikely related (number): 6
  punctate keratitis, right eye, unrelated (number): 1
[2]; [5]
  conjunctival hyperaemia, left eye, unlikely related (number): 2
  conjunctival hyperaemia, right eye, unlikely related (number): 10
  conjunctivitis, right eye, unlikely related (number): 1
  punctate keratitis, left eye, unlikely related (number): 2
  punctate keratitis, right eye, unlikely related (number): 5
[2]; multiple dose part
  clinical examination, biological parameters, vital signs or ECG parameters: No clinically relevant findings
  intensity of TEAEs: mild to moderate
  serious adverse events: No serious adverse events
[2]; multiple dose part, tid D1 to D21, 0.1-0.4 mg
  TEAEs experienced after XG-104 administration (number): 61
[2]; repeated dose t.i.d. 0.1 mg, 0.2 mg, 0.4 mg
  tolerability: well tolerated
[2]; single dose 0.1 mg (0.2%)
  eye pruritus, right eye, unrelated (number): 1
  punctate keratitis, right eye, unrelated (number): 2
[2]; single dose 0.1 mg, 0.2 mg, 0.4 mg
  tolerability: well tolerated
[2]; single dose 0.2 mg (0.4%)
  conjunctival hyperaemia, right eye, unrelated (number): 1
  punctate keratitis, right eye, unrelated (number): 2
[2]; single dose 0.4 mg (0.8%)
  punctate keratitis, right eye, unrelated (number): 2
[2]; single dose 0.8 mg (1.6%)
  TEAEs right eye probably related to study drug (number): 3
  conjunctival hyperaemia, right eye, probably related (number): 1
  conjunctivitis, right eye, probably related (number): 2
  punctate keratitis, right eye, unrelated (number): 1
  tolerability: rather well tolerated
[2]; single dose part
  clinical examination, vital signs or ECG parameters: No clinically relevant findings
  intensity of TEAEs: mild
  serious adverse events: No serious adverse events
[2]; single dose part, 0.1-0.8 mg, one drop right eye
  TEAEs experienced after XG-104 administration (number): 21
